From PMC5681660, “Reduced hepatitis B and D viral entry using clinically applied drugs as novel inhibitors of the bile acid transporter NTCP” (Scientific Reports, 2017)
Where a name gives a salt, the structure may show the parent alone.

Columns and labels:
[1] = molecular target: T1, human NTCP (Homo sapiens, UniProt Q14973); test: Screening taurocholate uptake assay (96-well, [14C]taurocholate, 10 µM drug); conditions: for B-score functional assay: 10 µM drug
T1 sequence (Q14973 1-349): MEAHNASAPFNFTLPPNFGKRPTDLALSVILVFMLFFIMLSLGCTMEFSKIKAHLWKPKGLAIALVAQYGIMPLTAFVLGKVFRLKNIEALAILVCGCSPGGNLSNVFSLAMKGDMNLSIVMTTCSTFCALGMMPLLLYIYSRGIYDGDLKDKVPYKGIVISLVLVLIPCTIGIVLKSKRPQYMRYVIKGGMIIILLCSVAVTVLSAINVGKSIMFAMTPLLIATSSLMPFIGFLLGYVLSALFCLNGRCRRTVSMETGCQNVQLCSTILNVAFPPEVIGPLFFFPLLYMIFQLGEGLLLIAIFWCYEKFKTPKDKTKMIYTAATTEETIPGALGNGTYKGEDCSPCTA

[2] = molecular target: T1, human NTCP; test: Screening fluorescent competitive Myrcludex B-FITC binding assay (96-well, 10 µM drug); conditions: 10 µM drug
[3] = combined ranking from functional and binding screening assays
[4] = screen, Myrcludex B-FITC binding
[5] = Prestwick library screen, B-score of taurocholate uptake
[6] = combined ranking from functional and binding assay B-scores
[7] = Prestwick library screen, B-score of Myrcludex B-FITC binding
[8] = Prestwick library screen, taurocholate uptake
[9] = ranking score beside the functional and binding assay B-scores of the screen
[10] = Prestwick library screen, Myrcludex B-FITC binding
[11] = combined ranking of functional and binding screening assays
[12] = ranking over the functional and the binding screening assay
[13] = screening taurocholate uptake, B-score

C[C@]12CCC(=O)C=C1CC[C@@H]1[C@@H]2C(=O)C[C@]2(C)C(=O)CC[C@@H]12 [Adrenosterone]
Ranking score [1, 3]: 291.781
B-score functional assay ([1]; screen, taurocholate uptake): -0.902
B-score binding assay [2, 4]: -0.699

C1CCC(C(CC2CCCCN2)C2CCCCC2)CC1 (stereo not drawn) [Perhexiline maleate]
Ranking score [1, 3]: 400.32
B-score functional assay ([1]; screen, taurocholate uptake): -0.011
B-score binding assay [2, 4]: -0.916

CC(C)C[C@H]1C(=O)N2CCC[C@H]2[C@]2(O)O[C@](NC(=O)[C@@H]3C=C4c5cccc6[nH]c(Br)c(c56)C[C@H]4N(C)C3)(C(C)C)C(=O)N12.CS(=O)(=O)O [Bromocryptine mesylate]
Ranking score [1, 3]: 349.571
B-score functional assay ([1]; screen, taurocholate uptake): -0.957
B-score binding assay [2, 4]: -0.252

Cc1onc(-c2c(F)cccc2Cl)c1C(=O)N[C@@H]1C(=O)N2[C@@H]1SC(C)(C)[C@@H]2C(=O)O [Flucloxacillin sodium]
B-score functional assay [1, 5]: 0.761
Ranking score [1, 6]: 1024.7
B-score binding assay [2, 7]: 1.029

C[C@@H]1CC[C@H]2[C@@H](C)C(=O)O[C@@H]3O[C@@]4(C)CC[C@@H]1[C@]32OO4 [Artemisinin]
B-score functional assay [1, 8]: 0.234
Ranking score [1, 9]: 655.672
B-score binding assay [2, 10]: -0.138

N=C(N)NCC1COC2(CCCCC2)O1.N=C(N)NCC1COC2(CCCCC2)O1.O=S(=O)(O)O (stereo not drawn) [Guanadrel sulfate]
Ranking score [1, 3]: 326.821
B-score functional assay ([1]; screen, taurocholate uptake): -2.033
B-score binding assay [2, 4]: 0.27

C#C[C@]1(O)CC[C@H]2[C@@H]3CCC4=Cc5oncc5C[C@]4(C)[C@H]3CC[C@@]21C [Danazol]
Ranking score [1, 3]: 407.041
B-score functional assay ([1]; screen, taurocholate uptake): -0.499
B-score binding assay [2, 4]: -0.305

COc1ccc(C2CNC(=O)C2)cc1OC1CCCC1 (stereo not drawn) [Rolipram]
B-score functional assay [1, 5]: 0.524
Ranking score [1, 6]: 872.569
B-score binding assay [2, 7]: 0.265

NC(=O)c1cccnc1 [Nicotinamide]
B-score functional assay [1, 5]: 1.452
Ranking score [1, 6]: 911.172
B-score binding assay [2, 7]: 0.079

COc1ccc(C[C@@H](C)NC[C@H](O)c2ccc(O)c(NC=O)c2)cc1.COc1ccc(C[C@@H](C)NC[C@H](O)c2ccc(O)c(NC=O)c2)cc1.O=C(O)/C=C/C(=O)O [Formoterol fumarate]
B-score functional assay [1, 8]: 1.513
Ranking score [1, 9]: 764.904
B-score binding assay [2, 10]: -0.165

CCCCNc1ccc(C(=O)OCCOCCOCCOCCOCCOCCOCCOCCOCCOC)cc1 [Benzonatate]
B-score functional assay [1, 5]: 0.062
Ranking score [1, 6]: 933.857
B-score binding assay [2, 7]: 2.274

Cl.Clc1ccc(Cn2c(CN3CCCC3)nc3ccccc32)cc1 [Clemizole hydrochloride]
Ranking score [1, 3]: 418.626
B-score functional assay ([1]; screen, taurocholate uptake): 2.268
B-score binding assay [2, 4]: -1.618

COc1cc(N)c(Cl)cc1C(=O)NC1CCN(Cc2ccccc2)CC1 [Clebopride maleate]
B-score functional assay [1, 8]: 0.453
Ranking score [1, 9]: 697.485
B-score binding assay [2, 10]: -0.092

C#CCN(C)[C@H](C)Cc1ccccc1 [Selegiline hydrochloride]
Ranking score [1, 11]: 462.99
B-score functional assay ([1]; screening taurocholate uptake): -1.141

CC(=O)NCCCS(=O)(=O)O [Acamprosate calcium]
Ranking score [1, 12]: 126.206
B-score functional assay ([1]; screening taurocholate uptake): -0.535

CC(C)(C)NCC(O)COc1cccc2c1CCC(=O)N2 (stereo not drawn) [Carteolol hydrochloride]
Ranking score [1, 11]: 570.247
B-score functional assay ([1]; screening taurocholate uptake): -0.486

CN/C(=N/CCSCc1nc[nH]c1C)NC#N [Cimetidine]
Ranking score [1, 12]: 269.583
B-score functional assay ([1]; screening taurocholate uptake): -0.365

CN1[C@@H]2CC[C@H]1C[C@@H](OC(c1ccccc1)c1ccccc1)C2 [Benztropine mesylate]
Ranking score [1, 11]: 529.655
B-score functional assay ([1]; screening taurocholate uptake): -0.008

CN(C)C/C=C(\c1ccc(Br)cc1)c1cccnc1.Cl.Cl.O [Zimelidine dihydrochloride monohydrate]
Ranking score [1, 12]: 266.786
B-score functional assay ([1]; screening taurocholate uptake): -1.216

COc1c(O[C@@H]2O[C@H](CO)[C@@H](O)[C@H](O)[C@H]2O)cc2c(c1OC)-c1ccc(SC)c(=O)cc1[C@@H](NC(C)=O)CC2 [Thiocolchicoside]
Ranking score [1, 12]: 64.2729
B-score functional assay ([1]; screening taurocholate uptake): -3.578

CC(C)n1c(/C=C/C(O)CC(O)CC(=O)O)c(-c2ccc(F)cc2)c2ccccc21 (stereo not drawn) [Fluvastatin sodium salt]
Ranking score [1, 12]: 89.7998
B-score functional assay ([1]; screening taurocholate uptake): -3.098

OCCN1CCN(CCCN2c3ccccc3Sc3ccc(C(F)(F)F)cc32)CC1 [Fluphenazine dihydrochloride]
Ranking score [1, 12]: 99.0152
B-score functional assay ([1]; screening taurocholate uptake): -4.102

C[C@@H]1C[C@H]2[C@@H]3C[C@H](F)C4=CC(=O)C=C[C@]4(C)[C@@]3(Cl)[C@@H](O)C[C@]2(C)[C@H]1C(=O)COC(=O)C(C)(C)C [Clocortolone pivalate]
Ranking score [1, 11]: 1150.27
B-score functional assay [1, 13]: 4.298

CC(CN(C)C)C(C)(O)Cc1ccc(Cl)cc1.Cl (stereo not drawn) [Clobutinol hydrochloride]
Ranking score [1, 11]: 492.244
B-score functional assay ([1]; screening taurocholate uptake): -0.006

C[C@@H]1C[C@H]2[C@@H]3C[C@H](F)C4=CC(=O)C=C[C@]4(C)[C@@]3(F)[C@@H](O)C[C@]2(C)[C@@]1(O)C(=O)COC(=O)C(C)(C)C [Flumethasone pivalate]
Ranking score [1, 11]: 535.546
B-score functional assay ([1]; screening taurocholate uptake): 0.019

Cc1c(Nc2ncccc2C(=O)O)cccc1C(F)(F)F [Flunixin meglumine]
Ranking score [1, 12]: 133.828
B-score functional assay ([1]; screening taurocholate uptake): -2.582

CCOc1cc(CC(=O)N[C@@H](CC(C)C)c2ccccc2N2CCCCC2)ccc1C(=O)O [Repaglinide]
Ranking score [1, 12]: 233.103
B-score functional assay ([1]; screening taurocholate uptake): -2.984

CCCCC1(COC(=O)CCC(=O)O)C(=O)N(c2ccccc2)N(c2ccccc2)C1=O [Suxibuzone]
Ranking score [1, 11]: 1138
B-score functional assay [1, 13]: 1.433

Cc1[nH]cnc1CN1CCc2c(c3ccccc3n2C)C1=O [Alosetron hydrochloride]
Ranking score [1, 11]: 562.783
B-score functional assay ([1]; screening taurocholate uptake): -0.019

C[C@@H]1C[C@@H]([C@H](O)CC2CC(=O)NC(=O)C2)C(=O)[C@@H](C)C1 [Cycloheximide]
Ranking score [1, 11]: 464.697
B-score functional assay ([1]; screening taurocholate uptake): 0.172

O=C1c2cccc(O)c2C(=O)c2c(O)cccc21 [1,8-Dihydroxyanthraquinone]
Ranking score [1, 11]: 1173.42
B-score functional assay [1, 13]: 1.277

CC(C)(C)C(=O)OCOC(=O)[C@@H]1N2C(=O)[C@@H](NC(=O)[C@H](N)c3ccccc3)[C@H]2SC1(C)C [Pivampicillin]
Ranking score [1, 12]: 199.66
B-score functional assay ([1]; screening taurocholate uptake): 2.096

O=C1CCc2ccc(OCCCCN3CCN(c4cccc(Cl)c4Cl)CC3)cc2N1 [Aripiprazole]
Ranking score [1, 11]: 580.393
B-score functional assay ([1]; screening taurocholate uptake): 1.007

CO/N=C(\C(=O)N[C@@H]1C(=O)N2C(C(=O)OC(C)OC(C)=O)=C(COC(N)=O)CS[C@H]12)c1ccco1 (stereo partly drawn) [Cefuroxime axetil]
Ranking score [1, 11]: 621.898
B-score functional assay ([1]; screening taurocholate uptake): -0.317

COc1ccc(C(=O)NCc2ccc(OCCN(C)C)cc2)cc1OC [Itopride]
Ranking score [1, 11]: 560.029
B-score functional assay ([1]; screening taurocholate uptake): -0.688

Clc1ccc(COC(Cn2ccnc2)c2ccc(Cl)cc2Cl)c(Cl)c1 (stereo not drawn) [Miconazole]
Ranking score [1, 12]: 240.998
B-score functional assay ([1]; screening taurocholate uptake): -2.763

C=CCOC(Cn1ccnc1)c1ccc(Cl)cc1Cl (stereo not drawn) [Enilconazole]
Ranking score [1, 11]: 592.625
B-score functional assay ([1]; screening taurocholate uptake): -0.129

CN1CCN(c2c(F)cc3c(=O)c(C(=O)O)cn4c3c2SCC4)CC1 [Rufloxacin]
Ranking score [1, 11]: 471.137
B-score functional assay ([1]; screening taurocholate uptake): -0.276

CC(C)(C)NC[C@@H](O)COc1cccc2c1CCCC2=O.Cl [(+) -Levobunolol hydrochloride]
Ranking score [1, 11]: 464.377
B-score functional assay ([1]; screening taurocholate uptake): -1.002

CN1CCCN=C1/C=C/c1cccc(O)c1.O=C(O)c1cc2ccccc2c(Cc2c(O)c(C(=O)O)cc3ccccc23)c1O [Oxantel pamoate]
Ranking score [1, 12]: 130.111
B-score functional assay ([1]; screening taurocholate uptake): -5.305
